PubChem BioAssay AID2022 (NMMLSC, 2009)
Activity calls are given as the source filed them. No rule for the calls is given here.

Molecular target: Cell division control protein 42 homolog (Homo sapiens) (UniProt P60953)
Experiment: wild-type Cdc42 GTP-binding inhibitors, SAR follow-up, biochemical, bead-based multiplex flow cytometry, additional SAR set (AID 2022)
Settings: fluorescent GTP binding; for Ki: measured here: Ki for Cdc42 wildtype

Chain of Cell division control protein 42 homolog (Homo sapiens) (P60953 whole entry, looked up): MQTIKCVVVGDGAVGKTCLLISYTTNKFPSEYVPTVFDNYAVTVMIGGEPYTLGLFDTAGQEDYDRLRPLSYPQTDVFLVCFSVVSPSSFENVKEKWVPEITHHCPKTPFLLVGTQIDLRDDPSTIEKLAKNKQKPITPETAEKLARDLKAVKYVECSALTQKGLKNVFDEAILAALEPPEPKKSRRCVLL

EC50	Ki [µM]	SMILES
> 30 µM (inactive)	–	O=C1C(c2c(O)[nH]c3ccccc23)=Nc2ccccc21
> 30 µM (inactive)	–	O=C1C(c2c(O)[nH]c3ccc(Br)cc23)=Nc2ccccc21
–	2.37	COc1ccc(-c2c(C#N)c(N)n(S(C)(=O)=O)c2C(=O)c2ccccc2)cc1Br
inactive	0.01	O=C1C(c2c(O)[nH]c3c(Cl)cccc23)=Nc2ccccc21
> 30 µM (inactive)	–	O=Nc1c(-c2c(O)[nH]c3ccc(Br)cc23)[nH]c2ccccc12
–	3.51	CC(C)Cc1ccc([C@H](C)C(=O)O)cc1
> 30 µM (inactive)	–	O=C1N=c2ccccc2=C1c1[nH]c(=O)[nH]c1O
> 30 µM (inactive)	–	O=C1C(c2c(O)[nH]c3c(Br)cccc23)=Nc2ccccc21
> 30 µM (inactive)	–	O=Nc1c(-c2c(O)[nH]c3c(Cl)cccc23)[nH]c2ccccc12
–	4.81	COc1ccc(S(=O)(=O)n2c(N)c(C#N)c(-c3cncc(Br)c3)c2C(=O)c2ccccc2)cc1
> 30 µM (inactive)	–	O=Nc1c(-c2c(O)[nH]c3ccccc23)[nH]c2ccccc12
> 30 µM (inactive)	–	O=Nc1c(-c2c(O)[nH]c3c(Br)cccc23)[nH]c2ccccc12
inactive	5.93	O=Nc1c(-c2c(O)[nH]c3c(F)cccc23)[nH]c2ccccc12
> 30 µM (inactive)	–	O=C1C(c2c(O)[nH]c3c(F)cccc23)=Nc2ccccc21
–	1.52	N#Cc1c(-c2ccc(Cl)cc2)c(C(=O)c2ccccc2)n(S(=O)(=O)c2ccc([N+](=O)[O-])cc2)c1N
> 30 µM (inactive)	–	O=C1N=c2ccccc2=C1c1[nH]c(=S)[nH]c1O
